# Data reported in patent publication US4746658A, “2-phenyl-imidazo-pyrazines, -pyridazines and -triazines” (Dr. Karl Thomae GmbH, priority 1983, dated 1988).
# Tested on: anesthetized cat
# Assay: Determination of the effect on blood pressure and of the positive inotropic effect in the anesthetized cat
# Assay type: in vivo
# Details: injected into vena femoralis, average, at least 3 cats; for Effect on blood pressure in mm Hg (first figure of pair) / Effect on blood pressure in mm Hg (second figure of pair): arterial pressure in aorta abdominalis
# Description: The above pharmacological properties were ascertained for the compounds of the present invention by the standard pharmacological test method described below, and the results of this test for two representative species of the genus are shown in the table below, where
# Determination of the effect on blood pressure and of the positive inotropic effect in the anesthetized cat
# The tests were carried out on cats which had been anesthetized with sodium pentobarbital (40 mg/kg i.p.). The animals breathed spontaneously. The arterial blood pressure was measured in the aorta abdominalis with a Statham pressure transducer (P 23 Dc). In order to determine the positive inotropic activity, the pressure in the left ventricle was measured with a catheter-tip manometer (Millar PC-350 A). From this the contractility parameter dp/dt was obtained, using an analog differentiator. The test compounds were injected into a vena femoralis. Polydiol 200 was used as the solvent. Each compound was tested on at least 3 cats.
Structure (SMILES),Effect on blood pressure in mm Hg (first figure of pair) (0.3 mg/kg) [mm Hg],Effect on blood pressure in mm Hg (second figure of pair) (0.3 mg/kg) [mm Hg],Duration of activity (half life) (0.3 mg/kg) [min],Increase in dp/dtmax in % (0.3 mg/kg) [%],Effect on blood pressure in mm Hg (first figure of pair) (0.6 mg/kg) [mm Hg],Effect on blood pressure in mm Hg (second figure of pair) (0.6 mg/kg) [mm Hg],Duration of activity (half life) (0.6 mg/kg) [min],Increase in dp/dtmax in % (0.6 mg/kg) [%]
"COc1cc(OS(C)(=O)=O)ccc1-c1nc2cnncc2[nH]1 [B, 2-(2-Methoxy-4-methanesulfonyloxy-phenyl)-imidazo[4,5-d]pyridazine]",-31,-18,38,36,,,,
"COc1cc(OS(C)(=O)=O)ccc1-c1nc2nccnc2[nH]1 [A, 2-(2-methoxy-4-methanesulfonyloxy-phenyl)-imidazo[4,5-b]pyrazine]",,,,,-24,-21,20,54
